From paper PMC10851555, “Safinamide, an inhibitor of monoamine oxidase, modulates the magnitude, gating, and hysteresis of sodium ion current” (BMC Pharmacology & Toxicology, 2024)
Where “and” joins values, the source holds several entries; their conditions need not be identical. Equal values may be shown once. Read-outs that look alike come from different tables or passages of the source.

Experiments:
[1] = system: voltage-gated sodium ion (NaV) channels in pituitary GH3 cells; assay: Persistent INa [INa(P)] and Hys(V) induced by upright isosceles-triangular Vramp (3.2 s) in GH3 cells; format: cell-based, rat; conditions: n = 7; for INa(P) amplitude at −10 mV [high-threshold Hys(V) loop]: control 175 ± 14 pA; for INa(P) amplitude at −80 mV [low-threshold Hys(V) loop]: control 288 ± 25 pA
Text: We further investigated whether SAF exposure modulated the magnitude and Hys(V) behavior of INa(P) induced by an isosceles-triangular Vramp in GH3 cells. To record whole-cell currents, the test cells were maintained at −80 mV and subjected to an upright isosceles-triangular Vramp ascending from –110 and +50 mV over 3.2 s (digital-to-analog conversion; Fig. 8A). […] For example, when test cells were subjected to an isosceles-triangular Vramp over 3.2 s (ramp speed of 0.1 mV/ms), the INa(P) amplitudes measured at −10 mV (high threshold) and −80 mV (low threshold) during the control period were 175 ± 14 pA (n = 7) and 288 ± 25 pA (n = 7), respectively. After the addition of 3 and 10 μM SAF, the INa(P) amplitude at −10 mV [high-threshold Hys(V) loop] was 194 ± 17 pA (n = 7, P < 0.05) and 219 ± 18 pA (n = 7, P < 0.05), respectively; the corresponding amplitudes at −80 mV [low-threshold Hys(V) loop] were 348 ± 29 pA (n = 7, P < 0.05) and 389 ± 31 pA (n = 7, P < 0.05), respectively. […] These findings indicate the unique Hys(V) behavior of INa(P) induced by an isosceles-triangular Vramp in GH3 cells; SAF exposure may increase the strength of Hys(V).
Fig. 8 Stimulatory effects of SAF on the voltage-dependent hysteresis [Hys(V)] behavior of persistent INa [INa(P)] induced by upright isosceles-triangular Vramp. Vramp was supplied for 3.2 s (ramp speed of 0.1 mV/ms; digital-to-analog conversion) to induce Hys(V) behavior in GH3 cells. (A) Current traces during the control period (left) and during the exposure to 10 μM SAF (right). The blue and red traces shown in each panel represent currents induced by the upsloping (ascending) and downsloping (descending) limbs of the upright isosceles-triangular Vramp, respectively. The inset indicates the voltage protocol. The dashed arrows indicate the direction of the current trajectory over time. (B) Summary graphs illustrating the effects of SAF (3 and 10 μM), SAF plus MGB, and SAF plus Ran on the amplitude of Vramp-induced INa(P) measured at −10 mV (ascending limb; left side) and −80 mV (descending limb; right side).

[2] = parameters: method as in PMID 15082032; conditions: cited from earlier work
[3] = system: voltage-gated sodium ion (NaV) channels in pituitary GH3 cells; assay: Whole-cell INa(T) decay during a 1-s, 20-Hz train of depolarizing pulses in GH3 cells; format: cell-based, rat; conditions: control 65 ± 4 ms, n = 7
Method: Shortly before experiments, GH3 was carefully suspended in normal Tyrode’s solution at room temperature (20–25 °C). A few drops of the suspension containing cell clumps were immediately added to a custom-built chamber on the stage of an inverted Diaphot-200 microscope (Nikon, Tokyo, Japan). Pipettes were pulled from Kimax-51 soft-glass capillaries (#34500-99; Kimble, Vineland, NJ) by using a Narishige PP-830 Vertical Puller (Tokyo, Japan), and their tips were fire-polished using a microforge (MF-83, Narishige). During the measurements, an electrode with a tip resistance of 2–4 MΩ, which was tightly inserted into a holder, was maneuvered using a WR-98 micromanipulator (Narishige). Patch-clamp experiments were performed in the voltage-clamp mode with either cell-attached or whole-cell configuration (rupturing of the membrane patch after GΩ formation) by using a RK-400 Patch-Clamp Amplifier (Bio-Logic, Claix, France) connected to a laptop. Shortly before GΩ formation, potential correction was performed for a liquid junction potential, which developed at the electrode’s tip because of the difference in the compositions of the internal and bath solutions.
SAF is efficacious as an add-on therapy following subthalamic nucleus deep brain stimulation in patients with Parkinson’s disease. Therefore, we investigated whether SAF could modify the inactivation of currents induced by a train of depolarizing stimuli. The test cells were maintained at −80 mV and subjected to repetitive depolarization to −10 mV (40 ms per pulse; rate of 20 Hz; duration of 1 s). Similar to the findings of relevant studies, during the control period (the absence of SAF), INa(T) inactivation was noticed to be induced by 1 s of repetitive depolarization stimuli (−80 to −10 mV) with a decaying time constant of 65 ± 4 ms (n = 7; Fig. 6A, 6B and 6C). […] In the presence of 3 and 10 μM SAF, the exponential time course of INa(T) induced by the same train of depolarizing pulses was longer at 107 ± 5 ms (n = 7, P < 0.05) and 124 ± 6 ms (n = 7, P < 0.05), respectively. Furthermore, as MGB and ranolazine have been reported to suppress the amplitude of INa effectively, we added ranolazine (Ran; 10 μM) and mirogabalin (MGB; 10 μM) separately in the presence of 10 μM SAF. […] The application of Ran (10 μM) or MGB (10 μM) alone decreased the decaying time constant of INa(T) during the same train of depolarizing pulses to 39 ± 4 ms (n = 7, P < 0.05) or 42 ± 4 ms (n = 7, P < 0.05), respectively, from a control value of 66 ± 5 ms (n = 7). Thus, in addition to increasing the magnitude of INa(T), SAF prominently affects the decaying of INa(T) subjected to a 1-s train of depolarizing pulses.
Fig. 6 Effect of SAF on INa(T) decay induced by a train of depolarizing pulses in GH3 cells. The train of pulses comprised twenty 40-ms pulses (voltage increased to −10 mV) with 10-ms intervals at −80 mV for a total duration of 1 s. (A) Current traces during the control period (a, blue) and during exposure to 10 μM SAF (b, red). The voltage-clamp protocol used is indicated atop the current traces. In panel A, the third graphs (blue and red) from the top are the expanded forms of the second graphs (brown dashed boxes). (B) The relative amplitude of INa(T) versus pulse train duration in the absence (blue open circles) and presence (red open squares) of 10 μM SAF (mean ± standard error of the mean; n = 7 for each point). The INa(T) amplitudes were normalized by dividing the current amplitudes at the end of each pulse-train stimulation by those obtained at the beginning of the pulse train stimulation. The gray continuous lines on which the data points are overlaid are reliably fitted with a single exponential.

[4] = system: MAO-B; conditions: read-out: IC50 for inhibition of MAO-B activity; cited from earlier work

Q: With C[C@H](NCc1ccc(OCc2cccc(F)c2)cc1)C(N)=O [SAF, (S)-2-((4-((3-fluorobenzyl)oxy)benzyl)amino)propanamide] as the compound, how does the “INa(P) amplitude at −10 mV [high-threshold Hys(V) loop]” value ([1]; 3 μM SAF) read?
A: Its value is 194 ± 17 pA.

Q: And the “INa(P) amplitude at −80 mV [low-threshold Hys(V) loop]” value ([1]; 3 μM SAF)?
A: Its value is 348 ± 29 pA.

Q: What about the “INa(P) amplitude at −10 mV [high-threshold Hys(V) loop]” value ([1]; 10 μM SAF) of the same compound?
A: The value was 219 ± 18 pA.

Q: And the “INa(P) amplitude at −80 mV [low-threshold Hys(V) loop]” value ([1]; 10 μM SAF)?
A: The value was 389 ± 31 pA.

Q: What about the maximal plasma concentration ([2]; single 5.0 mg/kg dose, 5 mg/kg) of the same compound?
A: Its maximal plasma concentration is […].

Q: What about the “decaying time constant of INa(T) during train of depolarizing pulses” value ([3]; 3 μM SAF) of the same compound?
A: The value was 107 ± 5 ms.

Q: What about the “decaying time constant of INa(T) during train of depolarizing pulses” value ([3]; 10 μM SAF) of the same compound?
A: Its value is 124 ± 6 ms.
